Assay results taken from ChEMBL document CHEMBL2073749, “Rat organic anion transporter 3 (rOAT3) is responsible for brain-to-blood efflux of homovanillic acid at the abluminal membrane of brain capillary endothelial cells” (J Cereb Blood Flow Metab, 2003).

Tests used:
[1] = molecular target: T1, Organic anion transporter 3 (OAT3) (Rattus norvegicus, UniProt Q9R1U7); assay: TP_TRANSPORTER: inhibition of Homovanillic acid uptake (HVA: 0.2 uM, PAH: 1000 uM) in Xenopus laevis oocytes; assay type: functional, cell-based, Oocyte; set-up: scale not given: the % may be the effect or the level left; conditions: Xenopus laevis oocytes (Organic anion transporter 3), probe Homovanillic acid (HVA), read-out: Activity
T1 sequence (Q9R1U7 whole entry): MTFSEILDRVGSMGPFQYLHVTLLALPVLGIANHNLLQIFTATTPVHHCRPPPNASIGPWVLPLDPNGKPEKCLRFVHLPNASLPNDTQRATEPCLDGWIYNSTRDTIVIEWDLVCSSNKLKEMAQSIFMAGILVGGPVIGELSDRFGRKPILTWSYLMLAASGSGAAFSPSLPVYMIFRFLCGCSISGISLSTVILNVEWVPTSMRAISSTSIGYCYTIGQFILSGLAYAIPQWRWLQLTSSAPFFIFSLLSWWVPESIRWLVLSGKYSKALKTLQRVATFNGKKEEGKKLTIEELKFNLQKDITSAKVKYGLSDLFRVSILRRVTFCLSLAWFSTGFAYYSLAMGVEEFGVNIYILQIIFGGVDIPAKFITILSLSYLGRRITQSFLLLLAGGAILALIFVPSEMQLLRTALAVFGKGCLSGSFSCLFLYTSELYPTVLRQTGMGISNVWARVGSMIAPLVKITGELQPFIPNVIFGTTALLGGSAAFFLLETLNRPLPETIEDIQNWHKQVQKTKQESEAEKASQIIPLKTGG

[2] = molecular target: T1, Organic anion transporter 3 (OAT3); assay: TP_TRANSPORTER: inhibition of Homovanillic acid uptake (HVA: 0.2 uM, Baclofen: 1000 uM) in Xenopus laevis oocytes; assay type: functional, cell-based, Oocyte; set-up: scale not given: the % may be the effect or the level left; conditions: Xenopus laevis oocytes (Organic anion transporter 3), probe Homovanillic acid (HVA), read-out: Activity
[3] = molecular target: T1, Organic anion transporter 3 (OAT3); assay: in vitro; conditions: xenopus laevis, Xenopus laevis oocytes (Organic anion transporter 3), probe Homovanillic acid (HVA), 0.2 uM
Description: TP_TRANSPORTER: inhibition of Homovanillic acid uptake (HVA: 0.2 uM, Cimetidine: 1000 uM) in Xenopus laevis oocytes

[4] = molecular target: T1, Organic anion transporter 3 (OAT3); assay: TP_TRANSPORTER: inhibition of Homovanillic acid uptake (HVA: 0.2 uM, E1S; 1000 uM) in Xenopus laevis oocytes; assay type: functional, cell-based, Oocyte; set-up: scale not given: the % may be the effect or the level left; conditions: Xenopus laevis oocytes (Organic anion transporter 3), probe Homovanillic acid (HVA), read-out: Activity
[5] = molecular target: T1, Organic anion transporter 3 (OAT3); assay: TP_TRANSPORTER: inhibition of Homovanillic acid uptake (HVA: 0.2 uM, Indomethacin: 1000 uM) in Xenopus laevis oocytes; assay type: functional, cell-based, Oocyte; set-up: scale not given: the % may be the effect or the level left; conditions: Xenopus laevis oocytes (Organic anion transporter 3), probe Homovanillic acid (HVA), read-out: Activity
[6] = molecular target: T1, Organic anion transporter 3 (OAT3); assay: TP_TRANSPORTER: inhibition of Homovanillic acid uptake (HVA: 0.2 uM, 6-mercaptopurine: 1000 uM) in Xenopus laevis oocytes; assay type: functional, cell-based, Oocyte; set-up: scale not given: the % may be the effect or the level left; conditions: Xenopus laevis oocytes (Organic anion transporter 3), probe Homovanillic acid (HVA), read-out: Activity
[7] = molecular target: T1, Organic anion transporter 3 (OAT3); assay: TP_TRANSPORTER: inhibition of Homovanillic acid uptake (HVA: 0.2 uM, PCG: 1000 uM) in Xenopus laevis oocytes; assay type: functional, cell-based, Oocyte; set-up: scale not given: the % may be the effect or the level left; conditions: Xenopus laevis oocytes (Organic anion transporter 3), probe Homovanillic acid (HVA), read-out: Activity
[8] = molecular target: T1, Organic anion transporter 3 (OAT3); assay: TP_TRANSPORTER: inhibition of Homovanillic acid uptake (HVA: 0.2 uM, Probenecid: 1000 uM) in Xenopus laevis oocytes; assay type: functional, cell-based, Oocyte; set-up: scale not given: the % may be the effect or the level left; conditions: Xenopus laevis oocytes (Organic anion transporter 3), probe Homovanillic acid (HVA), read-out: Activity
[9] = substrate: COc1cc(CC(=O)O)ccc1O; assay: TP_TRANSPORTER: uptake in Xenopus laevis oocytes; assay type: functional, cell-based, Oocyte

Question: How did the activity at 1000 µM [1] turn out when `Nc1ccc(C(=O)NCC(=O)O)cc1` [AMINOHIPPURIC ACID] was run?
Answer: The activity at 1000 µM was 20.3%.

Question: Which activity at 1000 µM [2] does the source give for `NCC(CC(=O)O)c1ccc(Cl)cc1` (centres undefined) [BACLOFEN] here?
Answer: Its activity at 1000 µM is 23.2%.

Question: For `CN/C(=N/CCSCc1nc[nH]c1C)NC#N` [CIMETIDINE], which activity at 1000 µM [3] is on record?
Answer: The activity at 1000 µM was 24.5%.

Question: `C[C@]12CC[C@@H]3c4ccc(OS(=O)(=O)O)cc4CC[C@H]3[C@@H]1CCC2=O` [ESTRONE SULFURIC ACID] was tested. Which activity at 1000 µM [4] did it give?
Answer: Its activity at 1000 µM is 4.35%.

Question: Which activity at 1000 µM [5] does the source give for `COc1ccc2c(c1)c(CC(=O)O)c(C)n2C(=O)c1ccc(Cl)cc1` [INDOMETHACIN] here?
Answer: Its activity at 1000 µM is 40.9%.

Question: For `Sc1ncnc2nc[nH]c12` [MERCAPTOPURINE ANHYDROUS], which activity at 1000 µM [6] is on record?
Answer: The activity at 1000 µM was 8.67%.

Question: For `CC1(C)S[C@@H]2[C@H](NC(=O)Cc3ccccc3)C(=O)N2[C@H]1C(=O)O` [PENICILLIN G], which activity at 1000 µM [7] is on record?
Answer: The activity at 1000 µM was 1.01%.

Question: With `CCCN(CCC)S(=O)(=O)c1ccc(C(=O)O)cc1` [PROBENECID] as the molecule, how does the activity at 1000 µM [8] read?
Answer: Its activity at 1000 µM is 23.4%.

B1: Organic anion transporter 3 (Rattus norvegicus) (protein)
chain: MTFSEILDRVGSMGPFQYLHVTLLALPVLGIANHNLLQIFTATTPVHHCRPPPNASIGPWVLPLDPNGKPEKCLRFVHLPNASLPNDTQRATEPCLDGWIYNSTRDTIVIEWDLVCSSNKLKEMAQSIFMAGILVGGPVIGELSDRFGRKPILTWSYLMLAASGSGAAFSPSLPVYMIFRFLCGCSISGISLSTVILNVEWVPTSMRAISSTSIGYCYTIGQFILSGLAYAIPQWRWLQLTSSAPFFIFSLLSWWVPESIRWLVLSGKYSKALKTLQRVATFNGKKEEGKKLTIEELKFNLQKDITSAKVKYGLSDLFRVSILRRVTFCLSLAWFSTGFAYYSLAMGVEEFGVNIYILQIIFGGVDIPAKFITILSLSYLGRRITQSFLLLLAGGAILALIFVPSEMQLLRTALAVFGKGCLSGSFSCLFLYTSELYPTVLRQTGMGISNVWARVGSMIAPLVKITGELQPFIPNVIFGTTALLGGSAAFFLLETLNRPLPETIEDIQNWHKQVQKTKQESEAEKASQIIPLKTGG
Question: How did the Km [9] turn out when B1 was run?
Answer: Its Km is 274 µM.
